This is an account of results in paper PMC3789652 (Journal of pharmaceutical sciences, 2011).

A short description of data set [1]: n-octanol / sodium phosphate buffer. The settings on record: n-octanol/sodium phosphate buffer pH 7.4, 0.15 M, room temperature; mean ± SD, n = 6. The class given is physicochemical.
In data set [2] the test system is plasma proteins. Kind of data set: plasma free fraction by ultrafiltration, monkey plasma. The settings on record: mean ± SD, n = 3; for fP Monkey: arterial monkey plasma, ultrafiltration, room temperature; for mlogDpr/pl Monkey: log10[(1−fp)/fp], monkey plasma. The class given is in vitro ADME, rhesus monkeys (Macaca mulatta).
The subject of data set [3] is plasma proteins. Kind of data set: plasma free fraction by ultrafiltration, human plasma. The settings on record: mean ± SD, n = 3; for mlogDpr/pl Human: log10[(1−fp)/fp]; for fP Human: ultrafiltration, room temperature. The class given is in vitro ADME.

In the case of `COc1ccccc1N1CCN(CCCCn2ncc(=O)n(C)c2=O)CC1` [Radiotracer 1, [O-methyl-^11C]2-(4-(4-(2-methoxyphenyl)piperazin-1-yl)butyl)-4-methyl-1,2,4-triazine-3,5(2H,4H)dione], the mlogD in data set [1] is 1.13 ± 0.02. In data set [2], the “fP Monkey” value is given as 0.594 ± 0.016 and the “mlogDpr/pl Monkey” value is listed as −0.165 ± 0.029. Further, the “mlogDpr/pl Human” value in data set [3] amounted to 0.101 ± 0.006.
Consider `N#Cc1cc(F)cc(C#Cc2csc(CF)n2)c1` [Radiotracer 4, 3-fluoro-5-(2-(2-(fluoromethyl)thiazol-4-yl)ethynyl)benzonitrile], for which the mlogD in data set [1] was determined as 2.18 ± 0.22. In data set [3], the “mlogDpr/pl Human” value is 1.25 ± 0.13 and the “fP Human” value is on record as 0.0550 ± 0.0165.
With `CN([11CH3])C(=O)C(CCN1CCC(O)(c2ccc(Cl)cc2)CC1)(c1ccccc1)c1ccccc1` [Radiotracer 7, [N-methyl-^11C]N-desmethyl-loperamide], the “fP Human” value in data set [3] is listed as 0.123 ± 0.015.
Compound `[2H]C([18F])Oc1cccc([C@H]2C[C@@H](N[C@H](C)c3ccccc3)C(=O)N2c2ccc(C(F)(F)F)cc2)c1` (stereo partly shown) [Radiotracer 18] returned a mlogD in data set [1] of 4.24 ± 0.08. In addition, in data set [2], the “fP Monkey” value is on record as 0.0041 ± 0.0001 and the “mlogDpr/pl Monkey” value is 2.39 ± 0.01. Besides, in data set [3], the “mlogDpr/pl Human” value is listed as 2.31 ± 0.14 and the “fP Human” value is 0.0050 ± 0.0017.
